Results published in patent publication US20210380602A1, “NOVEL PYRROLE AND PYRIDONE DERIVATIVES AND USES THEREOF” (VIRGINIA COMMONWEALTH UNIVERSITY, priority 2018, published 2021).
Read-outs that look alike come from different tables or passages of the source.

System: HIV-1IIIB
Test: Anti-HIV cytoprotection assay in CEM-SS cells infected with HIV-1IIIB, XTT viability readout after 6 days
Type: cell-based
Protocol: (§1) In some aspect, CEM-SS cells were incubated at 37° C./5% CO2 with serially diluted compound and a known titer of HIV-1IIIB for 6 days. The CEM-SS cell line is a derivative of the human T lymphosarcoma cell line CEM that is permissive for vif-deficient HIV-1 replication. Following the incubation, the cells were stained with the tetrazolium dye XTT and read at 460/650 nm on a spectrophotometer to evaluate cellular viability. Efficacy and toxicity values were calculated using linear regression analysis. The efficacy of compound H-a was compared to that of dolutegravir. The EC50 of compound II-a was in a range of 0.070-0.02 nM (e.g. 0.070, 0.075, 0.080, 0.085, 0.090, 0.095, 0.010, 0.015 or 0.02 nM)
as §1, with “CEM-SS” for “In some aspect, CEM-SS”, “analysis.” for “analysis. The efficacy of compound H-a was compared to that of dolutegravir. The EC50 of compound II-a was in a range of 0.070-0.02 nM (e.g. 0.070, 0.075, 0.080, 0.085, 0.090, 0.095, 0.010, 0.015 or 0.02 nM)”

Compound	EC50 (Human immunodeficiency virus 1, CEM-SS, 144 h) [pM]	EC50 [pM]
C[C@@H]1CCO[C@H]2Cn3cc(C(=O)NCc4ccc(F)cc4F)c(=O)c(O)c3C(=O)N12 [Compound I, Dolutegravir]	120	–
C[C@@H]1CCO[C@H]2Cn3cc(C(=O)C(=O)NCc4ccc(F)cc4F)c(O)c3C(=O)N12 [Compound II-a]	–	95
